Results taken from PubChem BioAssay AID1963832 (Molecular Pharmacology Branch, DTP, NCI, 2024).

Tested on: 885724-159-R-J1-PDC complex spheroid viability
Experiment: Anticancer human tumor 885724-159-R-J1-PDC patient-derived pancreatic adenocarcinoma cell line growth inhibition [POLQ]
Conditions: for IC50: curve of first compound; for viability, T/C: stronger effect = lower value
Method in brief: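 Patient-derived tumour cells were co-cultured with HUVEC and mesenchymal stem cells as multicellular spheroids at 37 °C. They were treated with POLQ inhibitors (novobiocin, ART-558, RP6685) alone or combined with other agents. Top concentrations were at or near clinical Cmax (otherwise 10 microM; SN-38 at 1 microM), decreasing in half-log steps.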

[1] = second compound 0.0316 µM, first compound 0.0316 µM
[2] = second compound 0.0316 µM, first compound 0.1 µM
[3] = second compound 0.1 µM, first compound 0.0316 µM
[4] = second compound 0.1 µM, first compound 0.1 µM
[5] = second compound 0.316 µM, first compound 0.0316 µM
[6] = second compound 0.316 µM, first compound 0.1 µM
[7] = second compound 1 µM, first compound 0.0316 µM
[8] = second compound 1 µM, first compound 0.1 µM
[9] = second compound 3.16 µM, first compound 0.0316 µM
[10] = second compound 3.16 µM, first compound 0.1 µM
[11] = second compound 10 µM, first compound 0.0316 µM
[12] = second compound 10 µM, first compound 0.1 µM
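Note: spheroids exposed to compounds for 7 days.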

In the case of `CC[C@@]1(O)C(=O)OCc2c1cc1n(c2=O)Cc2cc3c(CN(C)C)c(O)ccc3nc2-1` + Cc1cccc(N(C)C(=O)C2C(O)CCN2c2nc(C)cc(C(F)(F)F)c2C#N)c1, the IC50 (second compound 0.0316 µM) is reported as > 0.1 µM, the IC50 (second compound 0.1 µM) is reported as > 0.1 µM and the IC50 (second compound 0.316 µM) is reported as > 0.1 µM. For the same compound, the IC50 (second compound 1 µM) was > 0.1 µM, the IC50 (second compound 3.16 µM) was > 0.1 µM and the IC50 (second compound 10 µM) was > 0.1 µM. The viability, T/C (second compound 0.0316 µM, first compound 0.000316 µM) was 112%, the viability, T/C (second compound 0.0316 µM, first compound 0.001 µM) was 103% and the viability, T/C (second compound 0.0316 µM, first compound 0.00316 µM) was 98%. For the same compound, the viability, T/C (second compound 0.0316 µM, first compound 0.01 µM) was 93.5%, the viability, T/C [1] was 72% and the viability, T/C [2] was 65.5%. The viability, T/C (second compound 0.1 µM, first compound 0.000316 µM) was 111%, the viability, T/C (second compound 0.1 µM, first compound 0.001 µM) was 112% and the viability, T/C (second compound 0.1 µM, first compound 0.00316 µM) was 93.4%. It also gave a viability, T/C (second compound 0.1 µM, first compound 0.01 µM) of 93%, a viability, T/C [3] of 73.2% and a viability, T/C [4] of 68.1%. The viability, T/C (second compound 0.316 µM, first compound 0.000316 µM) was 117%, the viability, T/C (second compound 0.316 µM, first compound 0.001 µM) was 104% and the viability, T/C (second compound 0.316 µM, first compound 0.00316 µM) was 103%. For the same compound, the viability, T/C (second compound 0.316 µM, first compound 0.01 µM) was 100%, the viability, T/C [5] was 74.9% and the viability, T/C [6] was 62.4%. It also gave a viability, T/C (second compound 1 µM, first compound 0.000316 µM) of 100%, a viability, T/C (second compound 1 µM, first compound 0.001 µM) of 98% and a viability, T/C (second compound 1 µM, first compound 0.00316 µM) of 99.5%. It also gave a viability, T/C (second compound 1 µM, first compound 0.01 µM) of 94.2%, a viability, T/C [7] of 81.8% and a viability, T/C [8] of 61.7%. For the same compound, the viability, T/C (second compound 3.16 µM, first compound 0.000316 µM) was 108%, the viability, T/C (second compound 3.16 µM, first compound 0.001 µM) was 99.3% and the viability, T/C (second compound 3.16 µM, first compound 0.00316 µM) was 98.8%. For the same compound, the viability, T/C (second compound 3.16 µM, first compound 0.01 µM) was 101%, the viability, T/C [9] was 71.6% and the viability, T/C [10] was 55.3%. It also gave a viability, T/C (second compound 10 µM, first compound 0.000316 µM) of 99.9%, a viability, T/C (second compound 10 µM, first compound 0.001 µM) of 95.3% and a viability, T/C (second compound 10 µM, first compound 0.00316 µM) of 90.5%. It also gave a viability, T/C (second compound 10 µM, first compound 0.01 µM) of 87.6%, a viability, T/C [11] of 83% and a viability, T/C [12] of 63.6%.

In the case of `COc1cc2cc(C(=O)CCC(=O)O)sc2cc1OC` + Nc1ccc(C#CCN(C(=O)Cc2ncc(C(F)(F)F)cc2C(F)(F)F)c2ccc(F)cc2)nn1, the IC50 (second compound 0.0316 µM) is reported as > 10 µM, the IC50 (second compound 0.1 µM) is reported as > 10 µM and the IC50 (second compound 0.316 µM) is reported as > 10 µM. For the same compound, the IC50 (second compound 1 µM) was > 10 µM, the IC50 (second compound 3.16 µM) was > 10 µM and the IC50 (second compound 10 µM) was > 10 µM. The viability, T/C [1] was 96.1%, the viability, T/C [2] was 105% and the viability, T/C (second compound 0.0316 µM, first compound 0.316 µM) was 98.3%. The viability, T/C (second compound 0.0316 µM, first compound 1 µM) was 108%, the viability, T/C (second compound 0.0316 µM, first compound 3.16 µM) was 107% and the viability, T/C (second compound 0.0316 µM, first compound 10 µM) was 100%. The viability, T/C [3] was 103%, the viability, T/C [4] was 106% and the viability, T/C (second compound 0.1 µM, first compound 0.316 µM) was 98.8%. For the same compound, the viability, T/C (second compound 0.1 µM, first compound 1 µM) was 95.7%, the viability, T/C (second compound 0.1 µM, first compound 3.16 µM) was 101% and the viability, T/C (second compound 0.1 µM, first compound 10 µM) was 88.8%. It also gave a viability, T/C [5] of 101%, a viability, T/C [6] of 95.3% and a viability, T/C (second compound 0.316 µM, first compound 0.316 µM) of 90%. For the same compound, the viability, T/C (second compound 0.316 µM, first compound 1 µM) was 109%, the viability, T/C (second compound 0.316 µM, first compound 3.16 µM) was 97.6% and the viability, T/C (second compound 0.316 µM, first compound 10 µM) was 86.3%. For the same compound, the viability, T/C [7] was 94.9%, the viability, T/C [8] was 95.2% and the viability, T/C (second compound 1 µM, first compound 0.316 µM) was 94.4%. It also gave a viability, T/C (second compound 1 µM, first compound 1 µM) of 92.4%, a viability, T/C (second compound 1 µM, first compound 3.16 µM) of 103% and a viability, T/C (second compound 1 µM, first compound 10 µM) of 88.9%. The viability, T/C [9] was 91.1%, the viability, T/C [10] was 94.5% and the viability, T/C (second compound 3.16 µM, first compound 0.316 µM) was 103%. It also gave a viability, T/C (second compound 3.16 µM, first compound 1 µM) of 94.1%, a viability, T/C (second compound 3.16 µM, first compound 3.16 µM) of 104% and a viability, T/C (second compound 3.16 µM, first compound 10 µM) of 86.4%. For the same compound, the viability, T/C [11] was 107%, the viability, T/C [12] was 97.3% and the viability, T/C (second compound 10 µM, first compound 0.316 µM) was 92.7%. It also gave a viability, T/C (second compound 10 µM, first compound 1 µM) of 96.8%, a viability, T/C (second compound 10 µM, first compound 3.16 µM) of 114% and a viability, T/C (second compound 10 µM, first compound 10 µM) of 96%.

`CC(=O)O[C@H]1C(=O)[C@@]2(C)[C@H]([C@H](OC(=O)c3ccccc3)[C@]3(O)C[C@H](OC(=O)[C@H](O)[C@@H](NC(=O)c4ccccc4)c4ccccc4)C(C)=C1C3(C)C)[C@]1(OC(C)=O)CO[C@@H]1C[C@@H]2O` + Cc1cccc(N(C)C(=O)C2C(O)CCN2c2nc(C)cc(C(F)(F)F)c2C#N)c1 was tested, and the IC50 (second compound 0.0316 µM) was > 3 µM, the IC50 (second compound 0.1 µM) was > 3 µM and the IC50 (second compound 0.316 µM) was > 3 µM. The IC50 (second compound 1 µM) was > 3 µM, the IC50 (second compound 3.16 µM) was > 3 µM and the IC50 (second compound 10 µM) was > 3 µM. The viability, T/C (second compound 0.0316 µM, first compound 0.00949 µM) was 76.7%, the viability, T/C (second compound 0.0316 µM, first compound 0.03 µM) was 57.6% and the viability, T/C (second compound 0.0316 µM, first compound 0.0949 µM) was 58.8%. It also gave a viability, T/C (second compound 0.0316 µM, first compound 0.3 µM) of 62.2%, a viability, T/C (second compound 0.0316 µM, first compound 0.949 µM) of 70.6% and a viability, T/C (second compound 0.0316 µM, first compound 3 µM) of 61%. The viability, T/C (second compound 0.1 µM, first compound 0.00949 µM) was 75.1%, the viability, T/C (second compound 0.1 µM, first compound 0.03 µM) was 59.4% and the viability, T/C (second compound 0.1 µM, first compound 0.0949 µM) was 59.8%. The viability, T/C (second compound 0.1 µM, first compound 0.3 µM) was 70.4%, the viability, T/C (second compound 0.1 µM, first compound 0.949 µM) was 67.3% and the viability, T/C (second compound 0.1 µM, first compound 3 µM) was 70.6%. It also gave a viability, T/C (second compound 0.316 µM, first compound 0.00949 µM) of 67.6%, a viability, T/C (second compound 0.316 µM, first compound 0.03 µM) of 59.6% and a viability, T/C (second compound 0.316 µM, first compound 0.0949 µM) of 63%. It also gave a viability, T/C (second compound 0.316 µM, first compound 0.3 µM) of 63.6%, a viability, T/C (second compound 0.316 µM, first compound 0.949 µM) of 75.4% and a viability, T/C (second compound 0.316 µM, first compound 3 µM) of 69.7%. The viability, T/C (second compound 1 µM, first compound 0.00949 µM) was 68.2%, the viability, T/C (second compound 1 µM, first compound 0.03 µM) was 66.3% and the viability, T/C (second compound 1 µM, first compound 0.0949 µM) was 62.8%. It also gave a viability, T/C (second compound 1 µM, first compound 0.3 µM) of 67.2%, a viability, T/C (second compound 1 µM, first compound 0.949 µM) of 69.1% and a viability, T/C (second compound 1 µM, first compound 3 µM) of 68.9%. It also gave a viability, T/C (second compound 3.16 µM, first compound 0.00949 µM) of 62.5%, a viability, T/C (second compound 3.16 µM, first compound 0.03 µM) of 55.1% and a viability, T/C (second compound 3.16 µM, first compound 0.0949 µM) of 59.4%. It also gave a viability, T/C (second compound 3.16 µM, first compound 0.3 µM) of 63.8%, a viability, T/C (second compound 3.16 µM, first compound 0.949 µM) of 67.6% and a viability, T/C (second compound 3.16 µM, first compound 3 µM) of 64.5%. The viability, T/C (second compound 10 µM, first compound 0.00949 µM) was 59.1%, the viability, T/C (second compound 10 µM, first compound 0.03 µM) was 61.1% and the viability, T/C (second compound 10 µM, first compound 0.0949 µM) was 61%. For the same compound, the viability, T/C (second compound 10 µM, first compound 0.3 µM) was 66%, the viability, T/C (second compound 10 µM, first compound 0.949 µM) was 62.7% and the viability, T/C (second compound 10 µM, first compound 3 µM) was 72%.
